Patent US20110186299A1, “Low-Toxicity Biodegradable Corrosion Inhibitors” (priority 2008, published 2011)

Tests used:
[1] = Biodegradability in seawater (OECD Guideline 306); settings: marine environment
Protocol: The biodegradability tests are carried out in a marine environment according to the OECD Guideline 306.

[2] = system: freshwater algae (Pseudokirchneriella subcapitata); assay: Algal toxicity, growth inhibition of freshwater algae over 72 hours (OECD Guideline 201); format: cell-based; settings: inhibition of 50% of algal growth
Protocol: The toxicity of the substances for the environment can be measured with regard to various standardized tests. One of the more sensitive consists of the measurement of the toxicity with regard to freshwater algae (Pseudokirchneriella subcapitata). The test is carried out according to the OECD Guideline 201. It consists in evaluating the inhibition of the growth of the algae over a period of time of 72 hours. The characteristic parameter is the EC50, which is the concentration of the substance which brings about inhibition of 50% of the algal growth during the test.

Row | Compound | OECD 306 Biodegradability, % of biodegradation in 28 days [1] [%] | Algal toxicity (EC50 in mg/l) [2] [mg/L]
1 | CCCCCCCCC=CCCCCCCCC1=NCCN1CCN [Imidazoline A, N-aminoethyl-2-heptadecenylimidazoline] | 57 | 0.0047
2 | N-aminoethyl-2-heptadecenylimidazoline maleate [Example 2] | 66 | 1
